Reference: patent publication US20090018111A1, “Novel Antimicrobial Medicament” (priority 2004, published 2009)
Where two headings read alike, the source gives them in different places.

Experiments:
E. coli ML1410 RP4 = assay: microbe, parasite or virus in culture; format: cell-based, Escherichia coli; details: Escherichia coli
Procedure, shortened: (§1)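 Under the Japan Chemotherapeutic Society protocol, MIC was recorded as the lowest agar concentration, in twofold dilutions in MHA, preventing growth of about 10^6 CFU/ml inocula. FIC indices were derived for drug pairs.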

C. freundii GN346 = assay: Sensitivity test (agar dilution); format: cell-based, Citrobacter freundii; details: Citrobacter freundii
Procedure, shortened: as §1

P. aeruginosa TL-2667 = assay: Sensitivity test (agar dilution); format: cell-based, Pseudomonas aeruginosa; details: Pseudomonas aeruginosa
Procedure, shortened: as §1

M. luteus ATCC9341 = assay: Sensitivity test (agar dilution); format: cell-based, Micrococcus luteus; details: Micrococcus luteus
Procedure, shortened: as §1

## C[C@H]1C=C(c2csc(SC3=C(C(=O)O)N4C(=O)[C@H]([C@@H](C)O)[C@H]4[C@H]3C)n2)CN1 [SM, (4R,5S,6S)-6-[(1R)-1-Hydroxyethyl]-4-methyl-3-({4-[(5S)-5-methyl-2,5-dihydro-1H-pyrrol-3-yl]-1,3-thiazol-2-yl}sulfanyl)-7-oxo-1-azabicyclo[3.2.0]hept-2-ene-2-carboxylic acid]
E. coli ML1410 RP4; ML1410RP4, Concomitant (MEPM:SM = 1:4)
  MIC: ≤ 0.063 µg/mL
E. coli ML1410 RP4; ML1410RP4, Concomitant drug (MEPM:SM = 2:1)
  MIC: ≤ 0.008 µg/mL
E. coli ML1410 RP4; ML1410RP4, alone
  MIC: 0.5 µg/mL
E. coli ML1410 RP4; ML1410RP4, read-out: MIC alone, drug alone, E. coli ML1410 RP4
  MIC: 0.5 µg/mL
E. coli ML1410 RP4; ML1410RP4, read-out: MIC concomitant, Concomitant (AZT:SM = 1:1), E. coli ML1410 RP4
  MIC: 0.063 µg/mL
E. coli ML1410 RP4; ML1410RP4, read-out: MIC concomitant, Concomitant (BIPM:SM = 1:1), E. coli ML1410 RP4
  MIC: 0.125 µg/mL
E. coli ML1410 RP4; ML1410RP4, read-out: MIC concomitant, Concomitant (CAZ:SM = 1:1), E. coli ML1410 RP4
  MIC: 0.125 µg/mL
E. coli ML1410 RP4; ML1410RP4, read-out: MIC concomitant, Concomitant (CPFX:SM = 1:1), E. coli ML1410 RP4
  MIC: 0.25 µg/mL
E. coli ML1410 RP4; ML1410RP4, read-out: MIC concomitant, Concomitant (DRPM:SM = 1:1), E. coli ML1410 RP4
  MIC: 0.031 µg/mL
E. coli ML1410 RP4; ML1410RP4, read-out: MIC concomitant, Concomitant (PAPM:SM = 1:1), E. coli ML1410 RP4
  MIC: 0.125 µg/mL
E. coli ML1410 RP4; ML1410RP4, read-out: MIC concomitant, Concomitant (PIPC:SM = 1:1), E. coli ML1410 RP4
  MIC: 0.5 µg/mL
C. freundii GN346; GN346, Concomitant (AZT:SM = 1:1), C. freundii GN346, read-out: MIC concomitant
  MIC: 8 µg/mL
C. freundii GN346; GN346, Concomitant (BIPM:SM = 1:1), C. freundii GN346, read-out: MIC concomitant
  MIC: 0.125 µg/mL
C. freundii GN346; GN346, Concomitant (CAZ:SM = 1:1), C. freundii GN346, read-out: MIC concomitant
  MIC: 8 µg/mL
C. freundii GN346; GN346, Concomitant (CPFX:SM = 1:1), C. freundii GN346, read-out: MIC concomitant
  MIC: 0.008 µg/mL
C. freundii GN346; GN346, Concomitant (DRPM:SM = 1:1), C. freundii GN346, read-out: MIC concomitant
  MIC: 0.063 µg/mL
C. freundii GN346; GN346, Concomitant (IPM:SM = 1:1), read-out: MIC
  MIC: 0.25 µg/mL
C. freundii GN346; GN346, Concomitant (MEPM:SM = 1:1), read-out: MIC
  MIC: 0.031 µg/mL
C. freundii GN346; GN346, Concomitant (MEPM:SM = 1:2), read-out: MIC
  MIC: 0.063 µg/mL
C. freundii GN346; GN346, Concomitant (MEPM:SM = 1:4), read-out: MIC
  MIC: 0.125 µg/mL
C. freundii GN346; GN346, Concomitant (PAPM:SM = 1:1), C. freundii GN346, read-out: MIC concomitant
  MIC: 0.25 µg/mL
C. freundii GN346; GN346, Concomitant (PIPC:SM = 1:1), C. freundii GN346, read-out: MIC concomitant
  MIC: 8 µg/mL
C. freundii GN346; GN346, Concomitant drug (MEPM:SM = 2:1), read-out: MIC
  MIC: 0.016 µg/mL
C. freundii GN346; GN346, alone, read-out: MIC
  MIC: 8 µg/mL
C. freundii GN346; GN346, drug alone, C. freundii GN346, read-out: MIC alone
  MIC: 8 µg/mL
P. aeruginosa TL-2667; TL2667, Concomitant (AZT:SM = 1:1), P. aeruginosa TL-2667, read-out: MIC concomitant
  MIC: 8 µg/mL
P. aeruginosa TL-2667; TL2667, Concomitant (BIPM:SM = 1:1), P. aeruginosa TL-2667, read-out: MIC concomitant
  MIC: 4 µg/mL
P. aeruginosa TL-2667; TL2667, Concomitant (CAZ:SM = 1:1), P. aeruginosa TL-2667, read-out: MIC concomitant
  MIC: 8 µg/mL
P. aeruginosa TL-2667; TL2667, Concomitant (CPFX:SM = 1:1), P. aeruginosa TL-2667, read-out: MIC concomitant
  MIC: 2 µg/mL
P. aeruginosa TL-2667; TL2667, Concomitant (DRPM:SM = 1:1), P. aeruginosa TL-2667, read-out: MIC concomitant
  MIC: 2 µg/mL
P. aeruginosa TL-2667; TL2667, Concomitant (IPM:SM = 1:1), read-out: MIC
  MIC: 8 µg/mL
P. aeruginosa TL-2667; TL2667, Concomitant (MEPM:SM = 1:1), read-out: MIC
  MIC: 4 µg/mL
P. aeruginosa TL-2667; TL2667, Concomitant (MEPM:SM = 1:2), read-out: MIC
  MIC: 4 µg/mL
P. aeruginosa TL-2667; TL2667, Concomitant (MEPM:SM = 1:4), read-out: MIC
  MIC: 8 µg/mL
P. aeruginosa TL-2667; TL2667, Concomitant (PAPM:SM = 1:1), P. aeruginosa TL-2667, read-out: MIC concomitant
  MIC: 16 µg/mL
P. aeruginosa TL-2667; TL2667, Concomitant (PIPC:SM = 1:1), P. aeruginosa TL-2667, read-out: MIC concomitant
  MIC: 16 µg/mL
P. aeruginosa TL-2667; TL2667, Concomitant drug (MEPM:SM = 2:1), read-out: MIC
  MIC: 2 µg/mL
P. aeruginosa TL-2667; TL2667, alone, read-out: MIC
  MIC: 16 µg/mL
P. aeruginosa TL-2667; TL2667, drug alone, P. aeruginosa TL-2667, read-out: MIC alone
  MIC: 16 µg/mL
M. luteus ATCC9341; ATCC9341, Concomitant (AZT:SM = 1:1), M. luteus ATCC9341, read-out: MIC concomitant
  MIC: ≤ 0.002 µg/mL
M. luteus ATCC9341; ATCC9341, Concomitant (BIPM:SM = 1:1), M. luteus ATCC9341, read-out: MIC concomitant
  MIC: 0.004 µg/mL
M. luteus ATCC9341; ATCC9341, Concomitant (CAZ:SM = 1:1), M. luteus ATCC9341, read-out: MIC concomitant
  MIC: ≤ 0.002 µg/mL
M. luteus ATCC9341; ATCC9341, Concomitant (CPFX:SM = 1:1), M. luteus ATCC9341, read-out: MIC concomitant
  MIC: 0.004 µg/mL
M. luteus ATCC9341; ATCC9341, Concomitant (DRPM:SM = 1:1), M. luteus ATCC9341, read-out: MIC concomitant
  MIC: ≤ 0.002 µg/mL
M. luteus ATCC9341; ATCC9341, Concomitant (IPM:SM = 1:1), read-out: MIC
  MIC: 0.004 µg/mL
M. luteus ATCC9341; ATCC9341, Concomitant (MEPM:SM = 1:1), read-out: MIC
  MIC: ≤ 0.016 µg/mL
M. luteus ATCC9341; ATCC9341, Concomitant (MEPM:SM = 1:2), read-out: MIC
  MIC: ≤ 0.031 µg/mL
